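1) Cells in 96-well plates. 2) Compound, 48 h, 5 concentrations. 3) Linear interpolation between surrounding doses. 4) Unreached endpoint = highest concentration. TGI: total growth inhibition.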
Columns and labels:
Assay in all cases: NCI-60 cell line screen, 48 h
[1] = tested on: 786-0 renal
[2] = tested on: A498 renal
[3] = tested on: A549 NSCLC
[4] = tested on: ACHN renal
[5] = tested on: BT-549 breast
[6] = tested on: CAKI-1 renal
[7] = tested on: CCRF-CEM leukemia
[8] = tested on: COLO 205 colon
[9] = tested on: DU-145 prostate
[10] = tested on: EKVX NSCLC
[11] = tested on: HCC-2998 colon
[12] = tested on: HCT-116 colon
[13] = tested on: HCT-15 colon
[14] = tested on: HL-60(TB) leukemia
[15] = tested on: HOP-62 NSCLC
[16] = tested on: HS 578T breast
[17] = tested on: HT29 colon
[18] = tested on: IGROV1 ovarian
[19] = tested on: K-562 leukemia
[20] = tested on: KM12 colon
[21] = tested on: LOX IMVI melanoma
[22] = tested on: M14 melanoma
[23] = tested on: MALME-3M melanoma
[24] = tested on: MCF7 breast
[25] = tested on: MDA-MB-231 breast
[26] = tested on: MDA-MB-435
[27] = tested on: MDA-N
[28] = tested on: MOLT-4 leukemia
[29] = tested on: NCI-H226 lung
[30] = tested on: NCI-H23 lung
[31] = tested on: NCI-H460 lung
[32] = tested on: NCI-H522 lung
[33] = tested on: NCI/ADR-RES ovarian
[34] = tested on: OVCAR-3 ovarian
[35] = tested on: OVCAR-4 ovarian
[36] = tested on: OVCAR-5 ovarian
[37] = tested on: OVCAR-8 ovarian
[38] = tested on: PC-3 prostate
[39] = tested on: RPMI-8226 leukemia
[40] = tested on: RXF 393 renal
[41] = tested on: SF-268 CNS
[42] = tested on: SF-295 CNS
[43] = tested on: SF-539 CNS
[44] = tested on: SK-MEL-2 melanoma
[45] = tested on: SK-MEL-28 melanoma
[46] = tested on: SK-MEL-5 melanoma
[47] = tested on: SK-OV-3 ovarian
[48] = tested on: SN12C renal
[49] = tested on: SNB-19 CNS
[50] = tested on: SNB-75 CNS
[51] = tested on: SR leukemia
[52] = tested on: SW-620 colon
[53] = tested on: T-47D breast
[54] = tested on: TK-10 renal
[55] = tested on: U251 CNS
[56] = tested on: UACC-257 melanoma
[57] = tested on: UACC-62 melanoma
[58] = tested on: UO-31 renal
[59] = tested on: HOP-92 NSCLC

Measured: TGI

O=c1ccc2ccc(OP(=O)(O)O)cc2o1
> 100 µM: [1] | [2] | [3] | [4] | [5] | [6] | [7] | [8] | [9] | [10] | [11] | [12] | [13] | [14] | [15] | [16] | [17] | [18] | [19] | [20] | [21] | [22] | [23] | [24] | [25] | [26] | [27] | [28] | [29] | [30] | [31] | [32] | [33] | [34] | [35] | [36] | [37] | [38] | [39] | [40] | [41] | [42] | [43] | [44] | [45] | [46] | [47] | [48] | [49] | [50] | [51] | [52] | [53] | [54] | [55] | [56] | [57] | [58]

CC(=O)OCCn1cnc2c(NCC=C(C)C)ncnc21
> 100 µM: [1] | [2] | [3] | [4] | [6] | [7] | [8] | [9] | [10] | [12] | [14] | [15] | [59] | [16] | [17] | [18] | [19] | [20] | [21] | [22] | [23] | [24] | [25] | [26] | [27] | [28] | [29] | [30] | [31] | [32] | [33] | [34] | [35] | [36] | [37] | [38] | [39] | [40] | [41] | [42] | [43] | [45] | [46] | [47] | [48] | [49] | [50] | [51] | [52] | [53] | [54] | [56] | [58]
